These results are taken from patent US20260374739A1, “SMALL MOLECULAR WEIGHT CHEMICAL COMPOUND TO ANTAGONIZE EPH-EPHRIN TETRAMERIZATION AND INHIBIT BIDIRECTIONAL SIGNALING” (THE BOARD OF REGENTS OF THE UNIVERSITY OF TEXAS SYSTEM, priority 2022, published 2026).

Data set [1] in a line: in vitro metabolic stability, murine microsomal assay. The format is in vitro ADME, mouse. The conditions noted are these: for half-life: mouse, liver microsomes, murine microsomal assay; for metabolic stability: murine microsomal, compared to A20. For orientation: Microsomes from liver hold many membrane-bound enzymes, among them those of drug oxidation.
In another data set the target is T1, EphB2-EphrinA5 (Mus musculus, UniProt P54763).
T1 sequence (P54763 19-543 limits assumed): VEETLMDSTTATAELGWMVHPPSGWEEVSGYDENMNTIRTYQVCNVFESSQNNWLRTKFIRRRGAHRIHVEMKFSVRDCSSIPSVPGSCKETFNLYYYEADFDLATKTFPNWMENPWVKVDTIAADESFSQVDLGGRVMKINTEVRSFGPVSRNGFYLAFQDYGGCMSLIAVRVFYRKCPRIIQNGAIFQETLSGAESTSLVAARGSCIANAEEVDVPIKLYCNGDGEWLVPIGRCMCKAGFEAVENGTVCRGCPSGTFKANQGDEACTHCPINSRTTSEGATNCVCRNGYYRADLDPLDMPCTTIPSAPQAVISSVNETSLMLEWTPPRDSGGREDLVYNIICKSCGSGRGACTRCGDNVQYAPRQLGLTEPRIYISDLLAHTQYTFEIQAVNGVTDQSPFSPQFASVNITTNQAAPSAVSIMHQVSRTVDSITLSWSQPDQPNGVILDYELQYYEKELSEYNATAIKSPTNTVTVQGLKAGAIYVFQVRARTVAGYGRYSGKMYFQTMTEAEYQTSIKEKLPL
Nature of the data set: Octet, immobilized EphB2 binding to human EphrinA5. To be noted: for IC50: mEphB2-hEphrinA5, immobilized mouse EphB2, 50 nM soluble human EphrinA5. On the procedure: The Octet system was used to probe the interactions of epitope-tagged human A class proteins, focusing on immobilized EphA3 binding to two of its cognate ligands, EphrinA1 and EphrinA5, as well as EphB2 binding to EphrinA5 (FIG. 27). […] Focusing on the dimerization-driven EphA3-EA5 interaction first (green sensorgram trace), which mimics what is disclosed above for EphB4-EB2, the initial binding of soluble EphrinA5 to the immobilized EphA3 is very fast and strong with a long and steep 84° slope of response that then quickly bends around 35 sec into the association step to form a more gradual tetramerization accumulation slope. […] However, again like the EphB4-EB2 interaction, once placed into dissociation, a significant fraction of the bound EA5 protein melts quickly and the off phase continues downward with a slow gradual decline in bound protein. Although the dissociation was for only 500 sec, the continued downward slope of the response indicates most of the bound EA5 protein would eventually melt off of the immobilized EphA3 protein. This is referred to as a classic dimerization-driven interaction, fast and strong initial binding in the association step but with most of the bound protein coming off in the dissociation due to lack of formation of stable tetramers. EphA3 interacts with EphrinA1 with totally different kinetics/dynamics (orange sensorgram trace). Here, the initial high 84° dimerization slope phase is extremely brief (5 sec) with the binding quickly snapping into a linear tetramerization accumulation phase with a 25° slope, and that once placed into dissociation step almost no bound protein melts, just the small amount that would represent dimer interactions falling off in the first few seconds after being placed into dissociation. […] EphB2 interacting with EA5 is similar to the EphA3-EA1 interaction, in that the association step is characterized by a very brief (5 sec) high 84° slope phase that quickly bends into a more gradual tetramer accumulation phase (blue sensorgram trace). […] The strong initial off phase of the EphB2-EA5 complexes in the dissociation represents both the melting of weak dimers and of the relatively weaker affinity tetramers formed by the cross A/B class EphB2-EA5 molecules. […]
The novel compound A20-I is a halogen replacement that changes the 7-bromine in A20 for iodine and had enhanced tetramerization inhibitor activity (FIGS. 38A-38D). This is evident when comparing results of A20-I and A20 salt compounds on the interaction of immobilized mouse EphB2 ectodomain binding to soluble mouse EphrinB2 ectodomain (FIG. 38A and FIG. 38B) or soluble human EphrinA5 (FIG. 38C). […] During these interactions of immobilized EphB ectodomains binding to soluble EphrinB2, the tetramer is much more surmountable by addition of an active compound than for the reverse experiment where EphrinB2 is immobilized and EphB2 is the soluble component in the assay (see FIG. 11, FIG. 17, and FIG. 25A-FIG. 25C). It is believed that the more resistant unsurmountable tetramer formed by immobilized EphrinB2 binding to soluble EphB ectodomains provides for the most rigorous test for determining IC50 values and thus utilizing this EphrinB2-EphB2 assay for analysis of all compounds, provide uniformity in observed results. The results described herein with A20-I and using the human EphrinB2-EphB2 interaction indicates replacements can be made in the 7-bromine in A20 that lead to enhanced tetramerization inhibitor activity.
In general terms: Biolayer interferometry detects binding as a change in optical thickness at a sensor tip.

The next data set is described as follows: aqueous solubility. The format is physicochemical. The conditions noted are these: for solubility in water: salt forms. On the procedure: FIG. 45 depicts tests of salt forms of A20 and A20-1 for aqueous solubility. Compounds were provided to the UT Southwestern PK Core facility and tested for soluble in water. While both are quite soluble, A20 salt was especially so and can be made into a […] solution, whereas A20-I salt can be dissolved into >15% solution.
A study was conducted with A20 salt dissolved solely in PBS and injected at 20 mg/kg to match the previously described study of the free-base. […] The results from the brain, spinal cord, and liver tissues are particularly outstanding and indicate that significant levels of A20 salt remain even after the final collection at 24 hr time point.
To examine the drug-like nature of the disclosed compounds, tests for solubility was conducted.

Where [2] appears, read: association, absolute, read-out: Absolute Association IC50.
Where [3] appears, read: association, relative, read-out: Relative Association IC50.
Setting [4] is: dissociation, absolute, read-out: Absolute Dissociation IC50.
Setting [5] is: dissociation, relative, read-out: Relative Dissociation IC50.
[6] abbreviates: water, read-out: aqueous solubility.

Several values for one entry are separate records, joined by “and”; a condition that tells them apart may be missing. Equal entries are not always repeated. Where two headings read alike, the source gives them in different places. Where only a bound is given, the exact number is not on record here.

As a reminder, the half-life is the time in which the quantity being followed falls by half. As to `Oc1ccc(CN2CCOCC2)c2cccnc12` [Compound 1, 5-(morpholinomethyl)quinolin-8-ol], the half-life in data set [1] was 0.367 h.

The IC50 is the concentration needed to halve the response being measured. For `Oc1c(Cl)cc(CN2CCOCC2)c2cccnc12` [Compound 4, 4-((7-chloro-8-hydroxyquinolin-1-ium-5-yl)methyl)morpholin-4-ium chloride], the IC50 at EphB2-EphrinA5 (setting [2]), at EphB2-EphrinA5 (setting [3]), on EphB2-EphrinA5 (setting [4]) and on EphB2-EphrinA5 (setting [5]) was less than 1000 nM each time.

On to `Oc1c(Br)cc(CN2CCOCC2)c2cccnc12` [Compound 5, 7-bromo-5-(morpholinomethyl)quinolin-8-ol], for which the “formation of stable tetramers” value on EphB2-EphrinA5 (1 μM) was “completely inhibited the formation of stable tetramers”. The “solubility in water” value in “aqueous solubility” was “extremely soluble in water”. The compound further returned a half-life in data set [1] of 3.73 h.

The term solubility denotes the concentration that dissolves in the medium under given conditions. On to `Oc1c(Br)cc(CN2CCOCC2)c2cccnc12` [Compound 6, 4-((7-bromo-8-hydroxyquinolin-1-ium-5-yl)methyl)morpholin-4-ium chloride], for which the IC50 on EphB2-EphrinA5 (setting [2]) was 570 nM; at EphB2-EphrinA5 (setting [4]), less than 1000 nM. Further, the solubility is greater than 50 mg/mL in “aqueous solubility” (water or pbs, aqueous buffer, read-out: solubility in water or PBS) and greater than 1000 mg/mL in the data set “aqueous solubility” (setting [6]).

Consider `Oc1c(I)cc(CN2CCOCC2)c2cccnc12` [Compound 7, 7-iodo-5-(morpholinomethyl)quinolin-8-ol], for which, in the data set “aqueous solubility”, the “solubility in water” value was “extremely soluble in water”. Further, the “metabolic stability” value is listed as “longer in vitro half-life” in data set [1] (listed as A20-1) and “increased in vitro metabolic stability compared to A20” in data set [1] (listed as A20-I).

On to `Oc1c(I)cc(CN2CCOCC2)c2cccnc12` [Compound 8, 4-((8-hydroxy-7-iodoquinolin-1-ium-5-yl)methyl)morpholin-4-ium chloride], for which the half-inhibitory concentration (IC50) was 420 nM and 1590 nM at EphB2-EphrinA5 (setting [2]); 220 nM and 830 nM at EphB2-EphrinA5 (setting [3]); 90 nM at EphB2-EphrinA5 (setting [4]); 80 nM at EphB2-EphrinA5 (setting [5]). For the same compound, the solubility in “aqueous solubility” (setting [6]) was greater than 150 mg/mL.

`O=[N+]([O-])c1cc(CN2CCOCC2)c2cccnc2c1O` [Compound 10, 4-((8-hydroxy-7-nitroquinolin-1-ium-5-yl)methyl)morpholin-4-ium chloride]: the IC50 at EphB2-EphrinA5 (setting [2]) was determined as 4240 nM; on EphB2-EphrinA5 (setting [3]), 2900 nM; at EphB2-EphrinA5 (setting [4]) it was 100000 nM; at EphB2-EphrinA5 (setting [5]), 100000 nM.

Turning to `O=S1(=O)CCN(Cc2ccc(O)c3ncccc23)CC1` [Compound 15, 4-((8-hydroxyquinolin-1-ium-5-yl)methyl)thiomorpholin-4-ium 1,1-dioxide chloride], the IC50 is 7040 nM at EphB2-EphrinA5 (setting [2]), greater than 1000 nM at EphB2-EphrinA5 (setting [3]), 8400 nM at EphB2-EphrinA5 (setting [4]) and greater than 1000 nM at EphB2-EphrinA5 (setting [5]).

Regarding `Oc1ccc(CN2CCN(Cc3ccc(C(F)(F)F)cc3)CC2)c2cccnc12` [Compound 48, 5-((4-(4-(trifluoromethyl)benzyl)piperazin-1-yl)methyl)quinolin-8-ol], the IC50 is 8240 nM on EphB2-EphrinA5 (setting [2]), greater than 1000 nM at EphB2-EphrinA5 (setting [3]), 1000 nM at EphB2-EphrinA5 (setting [4]) and 1000 nM on EphB2-EphrinA5 (setting [5]).

As for `COc1ccccc1N1CCN(Cc2cc(Br)c(O)c3ncccc23)CC1` [Compound 70, 7-bromo-5-((4-(2-methoxyphenyl)piperazin-1-yl)methyl)quinolin-8-ol], in data set [1], the half-life stood at 2.27 h.
